One molecule from PubChem BioAssay AID504777 (National Center for Advancing Translational Sciences (NCATS), 2011) can be followed below.

In the series the test system is mouse liver microsomes without NADPH, LC-MS/MS. As to the kind of experiment: Enhancers of SMN2 Splice Variant Expression: Metabolic Stability in absence of NADPH Profiling. The conditions noted are these: at 1 µM; stronger effect = higher value. From the text:
Spinal muscular atrophy (SMA) is caused by insufficient levels of the survival motor neuron protein SMN. The SMN locus on chromosome 5q13 contains two inverted copies of SMN called SMN1 and SMN2 which are 99% identical at the amino acid level. SMN1 is a fully functional protein and SMN2 skips exon 7 90% of the time. Skipping of exon 7 produces non-functional protein product. 10% of the SMN2 protein includes exon 7 and is fully functional. In the SMA disease state, mutations in the SMN1 locus are the cause of the disease state. Because only 10% of SMN2 is of the fully functional form, it is not sufficient to overcome the deficiency produced by the loss of the SMN1 product. A therapy that either increase the amount of SMN2 product made or to increase the inclusion of exon 7 has been proposed for the treatment of SMA. Mouse liver microsomes are generated from lysed mouse liver. Liver microsomes contain many drug metabolizing enzymes, including Cytochome P-450s and flavin-containing monooxygenases. Because drug metabolism is major way of drug clearance, this is an important result. NIH Chemical Genomics Center [NCGC] NIH Molecular Libraries Probe Production centers Network [MLPCN] MLPCN Grant: R03 MH084179-01 Assay Submitter (PI): Elliot Androphy
1uM of compound in incubated in mouse liver microsome; the reference compound is ketanserin. […] Samples are analyzed with LC-MS/MS.

With `O=C(O)C1CCN(c2nc(-c3ccc(Br)cc3)cs2)CC1`, the percent remaining was 95%.
